According to patent US10519134B2, “Pyrazole compounds and methods of making and using same” (Lundbeck La Jolla Research Center, Inc., priority 2015, dated 2019):

What was measured:
Format in all cases: biochemical
MAGL [1] = target: T1, MAGL (Mus musculus, UniProt O35678); assay: In vitro competitive activity-based protein profiling (mouse), MAGL gel band; conditions: for inhibition at 1 µM: read-out: MAGL % inh. 1 μM
T1 construct: Proteomes (mouse brain membrane fraction or cell lysates); from tissue; host or cells: mouse brain membrane fraction (or cell lysates)
T1 sequence (O35678 1-303): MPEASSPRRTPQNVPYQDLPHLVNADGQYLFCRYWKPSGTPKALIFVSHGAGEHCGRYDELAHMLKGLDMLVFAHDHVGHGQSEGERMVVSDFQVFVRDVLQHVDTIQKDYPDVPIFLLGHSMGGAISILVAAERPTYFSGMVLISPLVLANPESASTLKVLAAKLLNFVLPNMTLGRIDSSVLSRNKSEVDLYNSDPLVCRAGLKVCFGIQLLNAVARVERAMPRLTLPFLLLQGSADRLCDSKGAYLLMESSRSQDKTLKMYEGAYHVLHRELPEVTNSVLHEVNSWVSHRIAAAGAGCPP
In short: (§1)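 Mouse brain membrane proteome or cell lysate (1.0 mg/mL protein) preincubated 30 min at 37 °C with varying inhibitor concentrations, then labelled 30 min at 37 °C with FP-Rh or HT-01 probe (50 μM stock). After SDS-PAGE, activity taken from fluorescent intensity of the MAGL and FAAH gel bands.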

FAAH = target: T2, FAAH (Mus musculus, UniProt O08914); assay: In vitro competitive activity-based protein profiling (mouse), FAAH gel band; conditions: for inhibition at 1 µM: read-out: FAAH % inh. 1 μM
T2 construct: Proteomes (mouse brain membrane fraction or cell lysates); from tissue; host or cells: mouse brain membrane fraction (or cell lysates)
T2 sequence (O08914 1-579): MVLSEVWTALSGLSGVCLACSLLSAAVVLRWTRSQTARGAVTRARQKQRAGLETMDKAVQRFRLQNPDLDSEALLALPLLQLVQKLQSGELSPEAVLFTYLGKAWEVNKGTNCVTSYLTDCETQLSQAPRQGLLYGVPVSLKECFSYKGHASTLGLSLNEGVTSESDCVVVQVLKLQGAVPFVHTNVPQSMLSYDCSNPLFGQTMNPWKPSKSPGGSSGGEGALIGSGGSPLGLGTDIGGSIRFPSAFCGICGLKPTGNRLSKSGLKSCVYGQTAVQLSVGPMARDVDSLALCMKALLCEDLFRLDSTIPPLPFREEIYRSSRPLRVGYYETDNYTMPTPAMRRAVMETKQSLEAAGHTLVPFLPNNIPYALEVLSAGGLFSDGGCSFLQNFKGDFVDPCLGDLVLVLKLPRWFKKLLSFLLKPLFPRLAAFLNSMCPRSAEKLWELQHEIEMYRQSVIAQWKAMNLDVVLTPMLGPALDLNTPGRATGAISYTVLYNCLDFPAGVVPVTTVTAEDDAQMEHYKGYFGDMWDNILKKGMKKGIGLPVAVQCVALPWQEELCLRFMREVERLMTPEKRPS
In short: as §1

MAGL [2] = target: T3, MAGL (Homo sapiens, UniProt Q99685); assay: In vitro competitive activity-based protein profiling (human), MAGL gel band
T3 construct: Proteomes (human prefrontal cortex or cell membrane fractions); from tissue; host or cells: human prefrontal cortex (or cell membrane fractions)
T3 sequence (Q99685 1-303): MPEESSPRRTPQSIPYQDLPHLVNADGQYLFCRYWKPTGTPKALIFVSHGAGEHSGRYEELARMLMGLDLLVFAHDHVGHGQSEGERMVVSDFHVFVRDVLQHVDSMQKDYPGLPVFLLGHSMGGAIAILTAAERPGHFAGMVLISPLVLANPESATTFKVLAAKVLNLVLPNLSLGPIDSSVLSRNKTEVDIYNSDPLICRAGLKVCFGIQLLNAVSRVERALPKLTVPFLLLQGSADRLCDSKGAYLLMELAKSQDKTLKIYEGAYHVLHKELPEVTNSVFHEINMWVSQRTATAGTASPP
Procedure: In Vitro Competitive Activity-Based Protein Profiling (Human).
Proteomes (human prefrontal cortex or cell membrane fractions) (50 μL, 1.0-2.0 mg/mL total protein concentration) were preincubated with varying concentrations of inhibitors at 37° C. After 30 min, FP-Rh or JW912 (1.0 μL, 50 μM in DMSO) was added and the mixture was incubated for another 30 min at room temperature. Reactions were quenched with SDS loading buffer (15 μL—4×) and run on SDS-PAGE. Following gel imaging, serine hydrolase activity was determined by measuring fluorescent intensity of gel bands corresponding to MAGL using ImageJ 1.49k software.

inhibition at 1 µM (MAGL [1]) [%]	inhibition at 1 µM (FAAH) [%]	IC50 (MAGL [2]) [nM]	IC50 (MAGL [1]; mouse) [nM]	IC50 (FAAH; mouse) [nM]	SMILES
≥ 75	0 to 25	≤ 100			CS(=O)(=O)Nc1ccn(C(=O)N2CCN(Cc3cc(N4CCC4)cc(C(F)(F)F)c3)CC2)n1 [Example 192, N-(1-(4-(3-(azetidin-1-yl)-5-(trifluoromethyl)benzyl)piperazine-1-carbonyl)-1H-pyrazol-3-yl) methanesulfonamide]
≥ 75	0 to 25	≤ 100			C#Cc1ccc(CN2CCN(C(=O)n3ccc(NC(C)=O)n3)CC2)cc1 [Example 210, N-(1-(4-(4-ethynylbenzyl)piperazine-1-carbonyl)-1H-pyrazol-3-yl) acetamide]
≥ 75	0 to 25	≤ 100			CS(=O)(=O)Nc1ccn(C(=O)N2CCN(Cc3ccc(C(F)(F)F)cc3N3CCC4(CC3)CCN(S(C)(=O)=O)C4)CC2)n1 [Example 234, N-(1-(4-(2-(2-(methylsulfonyl)-2,8-diazaspiro[4.5]decan-8-yl)-4-(trifluoromethyl)benzyl)piperazine-1-carbonyl)-1H-pyrazol-3-yl) methanesulfonamide]
≥ 75	0 to 25	≤ 100			CS(=O)(=O)Nc1ccn(C(=O)N2CCN(Cc3ccc(Cl)c(N4CC[C@H](O)C4)c3)CC2)n1 [Example 292, (S)-N-(1-(4-(4-chloro-3-(3-hydroxypyrrolidin-1-yl)benzyl)piperazine-1-carbonyl)-1H-pyrazol-3-yl) methanesulfonamide]
≥ 75	0 to 25	≤ 100			CS(=O)(=O)Nc1ccn(C(=O)N2CCN(Cc3ccc(Cl)c(N4CCCCC4)c3)CC2)n1 [Example 236, N-(1-(4-(4-chloro-3-(piperidin-1-yl)benzyl)piperazine-1-carbonyl)-1H-pyrazol-3-yl) methanesulfonamide]
≥ 75	0 to 25	≤ 100			CS(=O)(=O)Nc1ccn(C(=O)N2CCN(Cc3ccc(C(F)(F)F)cc3N3CCC(C(N)=O)CC3)CC2)n1 [Example 250, 1-(2-((4-(3-(methylsulfonamido)-1H-pyrazole-1-carbonyl)piperazin-1-yl)methyl)-5-(trifluoromethyl)phenyl)piperidine-4-carboxamide]
≥ 75	0 to 25	100 to 1000			CC(=O)N1CC2CN(c3cc(CN4CCN(C(=O)n5ccc(NS(C)(=O)=O)n5)CC4)ccc3Cl)CC2C1 (centres unmarked) [Example 215, N-(1-(4-(3-(5-acetylhexahydro-pyrrolo[3,4-c]pyrrol-2(1H)-yl)-4-chlorobenzyl)piperazine-1-carbonyl)-1H-pyrazol-3-yl) methanesulfonamide]
≥ 75	0 to 25	100 to 1000			CS(=O)(=O)Nc1ccn(C(=O)N2CCN(Cc3ccc(C(F)(F)F)cc3-c3ccc(C(F)(F)F)nc3)CC2)n1 [Example 212, N-(1-(4-(4-(trifluoromethyl)-2-(6-(trifluoromethyl)pyridin-3-yl)benzyl)piperazine-1-carbonyl)-1H-pyrazol-3-yl) methanesulfonamide]
≥ 75	0 to 25	≤ 100			Cc1cc(CN2CCCC23CCN(C(=O)n2ccc(NC(=O)C(F)F)n2)CC3)ccc1Cl [Example 257, N-(1-(1-(4-chloro-3-methylbenzyl)-1,8-diazaspiro[4.5]decane-8-carbonyl)-1H-pyrazol-3-yl)-2,2-difluoroacetamide]
≥ 75	0 to 25	≤ 100	≤ 100	1000 to 10000	CC(=O)Nc1ccn(C(=O)N2CCN(Cc3ccc(C(F)(F)F)cc3N3CCN4CCC[C@H]4C3)CC2)n1 [Example 267, (S)-N-(1-(4-(2-(hexahydropyrrolo[1,2-a]pyrazin-2(1H)-yl)-4-(trifluoromethyl)benzyl)piperazine-1-carbonyl)-1H-pyrazol-3-yl)acetamide]

The remaining lines, values behind:

SMILES	inhibition at 1 µM (MAGL [1]) [%]	inhibition at 1 µM (FAAH) [%]	IC50 (MAGL [2]) [nM]	IC50 (MAGL [1]; mouse) [nM]	IC50 (FAAH; mouse) [nM]
CC(=O)N1CCN(c2cc(C(F)(F)F)ccc2CN2CCN(C(=O)n3ccc(NS(C)(=O)=O)n3)CC2)CC1 [Example 174, N-(1-(4-(2-(4-acetylpiperazin-1-yl)-4-(trifluoromethyl)benzyl)piperazine-1-carbonyl)-1H-pyrazol-3-yl) methanesulfonamide]	≥ 75	0 to 25	≤ 100		
CS(=O)(=O)Nc1ccn(C(=O)N2CCN(Cc3ccc(C(F)(F)F)cc3N3CCN(S(C)(=O)=O)CC3)CC2)n1 [Example 173]	≥ 75	0 to 25	≤ 100		
CS(=O)(=O)Nc1ccn(C(=O)N2CCN(Cc3ccc(C(F)(F)F)cc3N3CCN(C(=O)N4CCC4)CC3)CC2)n1 [Example 187, N-(1-(4-(2-(4-(azetidine-1-carbonyl)piperazin-1-yl)-4-(trifluoromethyl)benzyl)piperazine-1-carbonyl)-1H-pyrazol-3-yl) methanesulfonamide]	≥ 75	0 to 25	100 to 1000		
CS(=O)(=O)Nc1ccn(C(=O)N2CCN(Cc3ccc(N4CCCC4)c(Cl)c3)CC2)n1 [Example 166, N-(1-(4-(3-chloro-4-(pyrrolidin-1-yl)benzyl)piperazine-1-carbonyl)-1H-pyrazol-3-yl) methanesulfonamide]	≥ 75	0 to 25	≤ 100		
CS(=O)(=O)Nc1ccn(C(=O)N2CCN(Cc3ccc(C(F)(F)F)cc3-c3ncon3)CC2)n1 [Example 112, N-(1-(4-(2-(1,2,4-oxadiazol-3-yl)-4-(trifluoromethyl)benzyl)piperazine-1-carbonyl)-1H-pyrazol-3-yl)methanesulfonamide]	≥ 75	0 to 25	≤ 100		
CS(=O)(=O)Nc1ccn(C(=O)N2CCN(Cc3ccc(C(F)(F)F)cc3N3CCC(C(=O)O)C3)CC2)n1 (centres unmarked) [Example 190, 1-(2-((4-(3-(methylsulfonamido)-1H-pyrazole-1-carbonyl)piperazin-1-yl)methyl)-5-(trifluoromethyl)phenyl) pyrrolidine-3-carboxylic acid]	≥ 75	0 to 25	≤ 100		
CS(=O)(=O)Nc1ccn(C(=O)N2CCN(Cc3ccc(C(F)(F)F)cc3N3CCN(C4CC4)CC3)CC2)n1 [Example 172, N-(1-(4-(2-(4-cyclopropylpiperazin-1-yl)-4-(trifluoromethyl)benzyl)piperazine-1-carbonyl)-1H-pyrazol-3-yl) methanesulfonamide]	≥ 75	0 to 25	≤ 100		
CS(=O)(=O)Nc1ccn(C(=O)N2CCC3(CCCN3Cc3ccc(N4CCCC4)c(C(F)(F)F)c3)CC2)n1 [Example 159, N-(1-(1-(4-(pyrrolidin-1-yl)-3-(trifluoromethyl)benzyl)-1,8-diazaspiro[4.5]decane-8-carbonyl)-1H-pyrazol-3-yl) methanesulfonamide]	≥ 75	0 to 25	100 to 1000		
CS(=O)(=O)Nc1ccn(C(=O)N2CCN(Cc3ccc(C(F)(F)F)cc3N3C4CCC3COC4)CC2)n1 [Example 206, N-(1-(4-(2-(3-oxa-8-azabicyclo[3.2.1]octan-8-yl)-4-(trifluoromethyl)benzyl)piperazine-1-carbonyl)-1H-pyrazol-3-yl) methanesulfonamide]	≥ 75	0 to 25	≤ 100		
